{"source": "paper PMC13198932", "about": "“Pyrazolone-based ERO1 inhibitors in ERO1-driven triple-negative breast cancer and SEPN1-related myopathy: Structure–activity relationship and therapeutic potential” (Pharmacological research, 2025)", "key": {"E0771 cells": {"test_system": "E0771 cells", "test": "MTS assay of metabolic activity in E0771 cells", "format": "cell-based, murine", "conditions": "E0771, dose-response, 24 h, 1 % FBS", "protocol": "Six thousand cells (MDAMB231 and E0771) per well were seeded in 96-well plates and cultured in medium containing 1 % FBS. Cells were treated with varying concentrations of compounds and, after 24 h, incubated with MTS [3-(4,5-dimethylthiazol-2-yl)-5-(3-carboxymethoxyphenyl)-2-(4 sulfophenyl)2Htetrazolium]and PMS (phenazine methosulfate), following the instructions of the CellTiter 96® Aqueous Non-Radioactive Cell Proliferation Assay (Promega). Measurements were performed using a TECAN Infinite M200 plate reader with […] at 490 nm."}, "WT and SEPN1 KO mice": {"test_system": "WT and SEPN1 KO mice", "test": "Whole-body plethysmography in WT and SEPN1 KO mice", "format": "in vivo", "conditions": "10 mg/kg i.p. once daily for five days", "protocol": "Wild-type (WT) and SEPN1 knockout (KO) C57BL/6 male mice, aged 4 months, were fed either a selenium-deficient diet or a diet containing 0,4 ppm selenium for four months (cod. 10105101, Charles River). Experimental protocols followed D.lgs. 26/2014 (authorization 19/2008-A; authorization 465/2023-PR to E. Zito). All animal experiments were performed in accordance with the ARRIVE guidelines and complied with relevant national and international laws, regulations, and policies governing the care and use of laboratory animals, including Italian law.\nWild-type (WT) and SEPN1 knockout (KO) male mice, previously fed a selenium-deficient diet or a diet containing 0.4 ppm selenium, were randomized to receive intraperitoneal (i.p.) injections of I29 or vehicle alone. Treatments were administered once daily for five consecutive days at a dose of 10 mg/kg. Twenty-four hours after the final injection, mice underwent whole-body plethysmography (Whole Body Plethysmography by emkaTechnologies) under baseline conditions in ambient air to assess several respiratory parameters reflecting ventilatory efficiency. In particular, tidal volume (TV), breathing frequency (f), peak inspiratory flow (PIF), and mean inspiratory flow (TV/inspiratory time [TI]) were measured. Both intra- and inter-subject coefficients of variation (CV) for TV and f were also computed."}, "[1]": {"conditions": "selenium-supplemented (0.4 ppm) SEPN1 KO mice"}}}
{"smiles": "O=C1/C(=C/c2ccc(-c3ccccc3)o2)C(C(F)(F)F)=NN1c1ccccc1F", "note": "[I29]", "values": [{"measurement": "metabolic activity (MTS assay)", "setting": "E0771 cells", "value": "superior efficacy of I29 over EN460"}, {"measurement": "respiratory function", "setting": "WT and SEPN1 KO mice; SEPN1 KO mice", "value": "failed to improve respiratory function"}, {"measurement": "respiratory parameters", "setting": "WT and SEPN1 KO mice; WT mice, independent of selenium content in the diet", "value": "mild improvement in respiratory parameters"}, {"measurement": "variability in tidal volume (CV TV)", "setting": "WT and SEPN1 KO mice; selenium-deficient SEPN1 KO mice", "value": "increased CV TV"}, {"measurement": "variability in respiratory frequency (CV f)", "setting": "WT and SEPN1 KO mice; [1]", "value": "concomitant reduction in CV f"}, {"measurement": "variability in tidal volume (CV TV)", "setting": "WT and SEPN1 KO mice; [1]", "value": "consistently reduced CV TV"}]}
